Source: US20220184037A1, “PHARMACEUTICAL AGENTS TARGETING CANCER STEM CELLS” (THE JOHNS HOPKINS UNIVERSITY, priority 2020, published 2022)

What was measured:
Type in all cases: cell-based, human
[1] = test system: bladder cancer cells (urothelial CSCs); assay: Sphere formation assay
Description: Sphere formation was induced by culturing cells (2×10^4/well) in […] F12 50/50 Mix (Mediatech) supplemented with B-27 (Life Technologies), 20 ng/mL FGF-basic (Peprotech), 20 ng/mL EGF (Peprotech). Cell culture was performed in ultra-low attachment 6 well plates (Corning, Lowell, USA) for 10 days. The medium was replaced every other day. Sphere formation was evaluated using the inverted phase-contrast microscope, and single sphere with a diameter larger than 100 gm was counted using NIS-Elements Microscope Imaging Software. To redifferentiate spheres, spheres were plated in standard growth medium with 10% FBS in dishes supporting cell attachment, and incubated for 7 days. For self-renewal assay, primary spheres were collected by gentle centrifugation (5 min at 400×g), dissociated with Stempro Accutase Cell Dissociation Reagent (Life Technologies), and mechanically disrupted with a pipette. The cell suspension was sieved through 40 μm cell strainer cap filter to achieve a single-cell suspension, and then equal numbers of alive cells were plated in ultralow attachment plates to generate the second spheres. Again, spheres were counted on day 14 and digested to generate the third Spheres. All the experiments were performed in triplicate and repeated at least three times.

[2] = test system: YAP1; assay: Western blotting of YAP1 expression in bladder cancer cells
Description: (§1) Whole cell lysates were extracted using RIPA buffer (Thermo Scientific) supplemented with 10 μL/mL Halt™ Protease Inhibitor Cocktail Kit (Life Technologies) and 30 μL/mL Halt™ Phosphatase Inhibitor Cocktail Kit (Life Technologies). The protein concentrations were determined using a Pierce™ BCA Protein Assay Kit (Life Technologies), and the protein were separated on. NuPAGE 4-12% Bis-Tris Gel (Life Technologies) according to the manufacturer's protocol. COX2 (D5H5), NANOG (D73G4), OCT4 (D7O5Z), CD133 (A3G6K), Snail (C15D3), ZEBI (D80D3), Vimentin (D21H3), CDH2 (D4R1H), CDH1 (24E10), p-EGFR (D7A5), EGFR (D38B1), p-AKT (D9E), AKT (cat #, 9272), p-ERK (D13.14.4E), ERK (137F5), p-YAP1 (D9W2I), p-Src (cat #, 2101), Src (36D10), DNMT1 (D63A6), DNMT3A (D23G1), and DNMT3B (D7070) antibodies were obtained from Cell Signaling Technology (Danvers, Mass., USA), except for SOX2 (EPR3131; Abeam, Cambridge, USA), YAP1 (ab52771; Abeam), CD24 (cat #, AF5247-SP; R&D Systems, Minneapolis USA) and β-actin (A2228; Sigma-Aldrich). Secondary horseradish peroxidase (HRP)-conjugated antibodies were obtained from Cell Signaling Technology, and chemiluminescent detection of HRP-labeled antibodies was performed using Amersham ECL Prime Western Blotting Detection Reagent (GE Healthcare, Piscataway, USA). As loading control, β-actin was used.

[3] = test system: let-7; assay: let-7 expression by Q-RT-PCR; settings: parental or spheroid bladder cancer cells
Description: Total RNA from cell lines was isolated using the RNeasy Plus Mini kit (Qiagen, Valencia, USA) according to the manufacturer's protocol. Total RNA extraction from bladder tissue was performed with the QIAzol Lysis Reagent (Qiagen) followed by phenol extraction and ethanol precipitation. Total RNA was eluted in DEPC treated water and stored at −80 ° C. Total RNA extraction from urine was performed using the MirVana miRNA Isolation Kit (Ambion, Austin, USA). These total RNA were converted to cDNA using the SuperScript III First-Strand Synthesis System (Life technologies, Carlsbad, USA), which was then used as a template for Q-RT-PCR. Q-RT-PCR was performed using the Fast SYBR Green Master Mix (Thermo Fisher Scientific, Waltham, USA) on a 7900HT Fast Real-Time PCR System (Life technologies) in triplicate. Micro RNA (miRNA) extraction was performed using the MirVana miRNA Isolation Kit, and was reverse transcribed using TaqMan reverse transcription kit (Applied Biosystems, Foster City, USA) and miRNA-specific RT primers provided with TaqMan microRNA assays (Applied Biosystems). Q-RT-PCR for miRNAs was performed using the TaqMan Universal PCR Master Mix according to the manufacturer's protocol. SDS software (Applied Biosystems) was used to determine cycle threshold (Ct) values. Expression level was quantified relative to β-actin for mRNA and RNU6B for miRNA using the 2-ΔΔCt method (12).
For demethylation, cells (1×10^6/T-75 flask) were treated with […] of the demethylating agent 5-Aza-dC (Sigma) dissolved in 50% acetic acid or were mock-treated with phosphate buffered saline (PBS) including the same amount of acetic acid every 24 hours for 5 days. When combined with the histone deacetylase inhibitor TSA (Sigma), 300 nmol/L TSA was added to the medium for the final 24 hours.

[4] = test system: SOX2; assay: Western blotting / flow cytometry of SOX2 expression in bladder cancer cells
Description: as §1
For extracellular staining, cells (1×10^6/100 μL stain buffer) were incubated with PE-Vio770-conjugated anti-human CD133 (293C3; Miltenyi Biotec, Auburn, USA) or PE-conjugated anti-human CD24 antibody (cat #, 560991; BD Biosciences) for 30 min at 4° C. in dark. PE-Vio770-conjugated anti-IgG1κ Isotype (cat #, 130-098-563; Miltenyi Biotec) and PE-conjugated IgG2a, κ Isotype (cat #, 555574; BD Biosciences) were used as control for CD133 and CD24 staining, respectively. Staining for intracellular SOX2 was carried out using the BD Cytofix/Cytopem Fixation/Permeabilization Kit (BD Biosciences) according to manufacturer's protocol. The cells were incubated with Alexa Fluor 647-conjugated anti-SOX2 antibody (cat #, 560302; BD Biosciences) for 40 min at 4° C. in dark. Alexa Fluor 647-conjugated anti-IgG2a, κ Isotype (cat #, 558053; BD Biosciences) was used as control. Data were acquired on a BD FACSCalibur flow cytometer (BD Biosciences) using BD CellQuest Pro software (BD Biosciences) and analyzed with FlowJo software v10.1 (Tree Star, Ashland, USA).

[5] = basal-type cells, 1 μM erlotinib

SMILES | sphere-forming ability / sphere formation ([1]; COX2 inhibitor or EP4 antagonist alone) | erlotinib-increased sphere formation ([1]; basal-type cells, COX2 inhibitor added to erlotinib (10 μM celecoxib, 72 hours)) | induction of YAP1 expression ([2]; COX2 inhibitor added to erlotinib) | let-7 expression [3] | SOX2 expression ([4]; COX2 inhibitor or EP4 antagonist alone (FIG. 2A-B, S7)) | erlotinib-increased SOX2 expression ([4]; basal-type cells, COX2 inhibitor added to erlotinib) | number of spheres ([1]; basal-type cells, 1 μM erlotinib for 72 hours) | YAP1 expression [2, 5] | levels of YAP1 expression ([2]; non-basal-type cells, erlotinib) | level of SOX2 expression over time [4, 5]
Cc1ccc(-c2cc(C(F)(F)F)nn2-c2ccc(S(N)(=O)=O)cc2)cc1 [celecoxib, Celecoxib] | repressed | impaired | no longer able to induce YAP1 expression | restoration of let-7 expression | SOX2 downregulation | impaired |  |  |  | 
C#Cc1cccc(Nc2ncnc3cc(OCCOC)c(OCCOC)cc23)c1 [erlotinib, Erlotinib] |  |  |  |  |  |  | enriched number of spheres | continuously decreased YAP1 expression | did not affect | decreased at 1 hour after treatment with erlotinib and then gradually increased
